Laboratory results from patent US5231093A, “Carbamate derivatives of 4-amino-3-isoxazolidinones, 3-amino-1-hydroxypyrrolidin-2-ones and 1-amino-1-cyclopropanecarboxylic acid analogs” (priority 1992, dated 1993).
Counter-ions that a name gives are not always drawn. Like-named read-outs stand apart in the source and are kept apart here.

Key:
acetylcholinesterase = molecular target: T1, acetylcholinesterase (Rattus norvegicus, UniProt P37136); experiment: In Vitro Inhibition of Acetylcholinesterase Activity in Rat Striatum; assay type: biochemical
T1 construct: corpora striata dissected free, weighed and homogenized in 19 volumes; from tissue; host or cells: corpus striatum of male Wistar rats, whole homogenate in 0.05M phosphate buffer pH 7.2
T1 sequence (P37136 32-614): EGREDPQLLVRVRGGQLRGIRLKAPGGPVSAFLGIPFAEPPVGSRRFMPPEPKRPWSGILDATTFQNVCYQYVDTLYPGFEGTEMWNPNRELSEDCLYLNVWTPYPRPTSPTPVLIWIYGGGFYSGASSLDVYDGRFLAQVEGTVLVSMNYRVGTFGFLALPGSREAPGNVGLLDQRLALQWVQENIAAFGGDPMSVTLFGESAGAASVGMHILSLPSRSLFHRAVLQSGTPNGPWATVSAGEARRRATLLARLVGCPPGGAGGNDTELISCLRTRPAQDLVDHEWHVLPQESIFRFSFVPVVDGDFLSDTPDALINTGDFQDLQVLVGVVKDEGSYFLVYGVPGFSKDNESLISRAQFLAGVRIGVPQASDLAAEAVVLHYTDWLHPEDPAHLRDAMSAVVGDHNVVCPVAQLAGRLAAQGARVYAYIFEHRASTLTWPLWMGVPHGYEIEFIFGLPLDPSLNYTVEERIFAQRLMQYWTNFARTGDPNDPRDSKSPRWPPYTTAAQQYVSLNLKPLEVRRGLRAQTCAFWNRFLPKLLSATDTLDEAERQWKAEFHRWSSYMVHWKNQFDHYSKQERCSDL
Description: Cholinesterases are found throughout the body, both in the brain and in serum. However, only brain acetylcholinesterase (AChE) distribution is correlated with central cholinergic innervation.
The method described below was used in this invention for assaying cholinesterase activity. This is a modification of the method of Ellman et al., Biochem. Pharmacol. 7, 88 (1961).
1. 0.05M Phosphate buffer, pH 7.2
(c) add (a) to (b) until pH reaches 7.2
4. […] Drugs are serially diluted (1:10) such that the final concentration (in cuvette) is 10^-4 M and screened for activity. If active, IC50 values are determined from the inhibitory activity of subsequent concentrations.
Male Wistar rats are decapitated, brains rapidly removed, corpora striata dissected free, weighed and homogenized in 19 volumes (approximately 7 mg protein/ml) of 0.05M phosphate buffer, pH 7.2 using a Potter-Elvehjem homogenizer. A 25 microliter aliquot of the homogenate is added to 1.0 milliter vehicle or various concentrations of the test drug and preincubated for 10 minutes at 37° C.
Enzyme activity is measured with the Beckman DU-50 spectrophotometer. This method can be used for IC50 determinations and for measuring kinetic constants.
Reagents are added to the blank and sample cuvettes as follows:
Blank values are determined for each run to control for non-enzymatic hydrolysis of substrate and these values are automatically subtracted by the kindata program available on kinetics soft-pac module. This program also calculates the rate of absorbance change for each cuvette.
Substrate concentration is 10 mM diluted 1:2 in assay yielding final concentration of 5 mM. DTNB concentration is 0.5 mM yielding 0.25 mM final concentration. [formula] IC50 values are calculated from log-probit analysis

[1] = system: Scopolamine Induced Memory Deficit; assay type: in vivo, mice
Protocol: In this assay mice are tested for their ability to remember an unpleasant stimulus for a period of 24 hours. A mouse is placed in a chamber that contains a dark compartment; a strong incandescent light drives it to the dark compartment, where an electric shock is administered through metal plates on the floor. The animal is removed from the testing apparatus and tested again, 24 hours later, for the ability to remember the electric shock.
If scopolamine, an anticholinergic agent that is known to cause memory impairment, is administered before an animal's initial exposure to the test chamber, the animal re-enters the dark compartment shortly after being placed in the test chamber 24 hours later. This effect of scopolamine is blocked by an active test compound, resulting in a greater interval before re-entry into the dark compartment.
The results for an active compound are expressed as the percent of a group of animals in which the effect of scopolamine is blocked, as manifested by an increased interval between being placed in the test chamber and re-entering the dark compartment.
Results of this assay for some of the compounds of this invention and those for tacrine (reference compound) are presented in Table 2.

SMILES | IC50 (acetylcholinesterase) [nM] | % of Animals with Scopolamine Induced Memory Deficit Reversal ([1]; mice, 0.3 mg/kg of body weight, s.c, 24 hours) [%] | % of Animals with Scopolamine Induced Memory Deficit Reversal ([1]; mouse, in vivo, 0.63 mg/kg) [%]
CN1CC[C@@]2(C)c3cc(OC(=O)N[C@@H]4CCN(OCc5ccccc5)C4=O)ccc3N(C)[C@@H]12 [(3aS-cis)-1,2,3,3a,8,8a-Hexahydro-1,3a,8-trimethylpyrrolo-[2,3-b]indol-5yl [2-oxo-1-(phenylmethoxy)-3R-pyrrolidinyl]carbamate] | 67 | – | –
CN1CC[C@@]2(C)c3cc(OC(=O)N[C@@H]4CCN(O)C4=O)ccc3N(C)[C@@H]12 [(3aS-cis)-1,2,3,3a,8,8a-Hexahydro-1,3a,8-trimethylpyrrolo[2,3-b]indol-5-yl [2-oxo-1-(hydroxy)-3R-pyrrolidinyl]carbamate, citrate salt] | 2310 | – | –
CN1CC[C@@]2(C)c3cc(OC(=O)N[C@@H]4CON(Cc5ccccc5)C4=O)ccc3N(C)[C@@H]12 [(3aS-cis)-1,2,3,3a,8,8a-Hexahydro-1,3a,8-trimethypyrrolo-[2,3-b]indol-5-yl [2-(phenylmethyl)-3-oxo-4R-isoxazolidinyl]-carbamate hemihydrate] | 500 | 27 | –
Nc1c2c(nc3ccccc13)CCCC2 [Tacrine, reference compound] | – | – | 13
